From ChEMBL document CHEMBL1201862, “PubChem BioAssay data set” (2004)
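In this assay, cells in 96-well plates receive the compound at five concentrations for 48 hours. Endpoints are linearly interpolated between the surrounding concentrations. At the GI50, growth is halved.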 Active and inactive are the calls of the source. Rule as the data show it: active = GI50 up to about 1.1 µM and inactive = higher.

Columns and labels:
Assay in all cases: NCI anticancer screen, dose series, 48 h
[1] = tested on: M19-MEL
[2] = tested on: KM12
[3] = tested on: HL-60
[4] = tested on: DMS-114
[5] = tested on: SNB-78
[6] = tested on: DLD-1
[7] = tested on: RXF 631
[8] = tested on: XF498
[9] = tested on: A498
[10] = tested on: PC-3
[11] = tested on: MDA-MB-435
[12] = tested on: MDA-N
[13] = tested on: HCT-15
[14] = tested on: IGROV-1
[15] = tested on: COLO 205
[16] = tested on: NCI/ADR-RES
[17] = tested on: DU-145
[18] = tested on: T47D
[19] = tested on: MDA-MB-231
[20] = tested on: NCI-H226

Row | SMILES | GI50 [1] | GI50 [2] | GI50 [3] | GI50 [4] | GI50 [5] | GI50 [6] | GI50 [7] | GI50 [8] | GI50 [9] | GI50 [10] | GI50 [11] | GI50 [12] | GI50 [13] [µM] | GI50 [14] | GI50 [15] | GI50 [16] | GI50 [17] | GI50 [18] | GI50 [19] | GI50 [20]
1 | O=S(O)c1cc(Cl)c(O)c(Cl)c1 | > 100 µM (inactive) | > 100 µM (inactive) | > 100 µM (inactive) | > 100 µM (inactive) | > 100 µM (inactive) | > 100 µM (inactive) | > 100 µM (inactive) | > 100 µM (inactive) | > 100 µM (inactive) | – | – | – | – | – | – | – | – | – | – | –
2 | Nc1ccc(OCC(O)N2C(=O)c3ccccc3C2=O)cc1 (centres undefined) | – | – | > 100 µM (inactive) | – | – | – | – | – | – | > 100 µM (inactive) | > 100 µM (inactive) | > 100 µM (inactive) | > 100 | > 100 µM (inactive) | > 100 µM (inactive) | > 100 µM (inactive) | > 100 µM (inactive) | > 100 µM (inactive) | > 100 µM (inactive) | –
3 | COc1ccc(/C(C=O)=C(\Cl)c2ccc(OC)c(OC)c2)cc1 | > 100 µM (inactive) | – | 24 µM (inactive) | 81.3 µM (inactive) | 23 µM (inactive) | 15.6 µM (inactive) | > 100 µM (inactive) | 15.4 µM (inactive) | 18.4 µM (inactive) | – | – | – | > 100 | > 100 µM (inactive) | – | – | – | – | – | > 100 µM (inactive)
4 | O=C1/C(=C/c2ccc(Cl)cc2)N=C(c2ccccc2)N1/N=C/c1ccccc1O | – | 12.9 µM (inactive) | 28.1 µM (inactive) | – | – | – | – | – | – | 10.3 µM (inactive) | 26.7 µM (inactive) | 69.5 µM (inactive) | 30.9 | 8.26 µM (inactive) | 16.3 µM (inactive) | 18.2 µM (inactive) | 21 µM (inactive) | 6.27 µM (inactive) | 15.1 µM (inactive) | 19.2 µM (inactive)
